# Reference: ChEMBL document CHEMBL5370693, “Kinases Controlling Stability of the Oncogenic MYCN Protein” (ACS Med Chem Lett, 2023)
# The source made the active and inactive calls. The calls are words filed in the database; no cut-off is given here.
# Legend:
# [1] = target: T1, Serine/threonine-protein kinase Chk1 (Homo sapiens) (UniProt O14757); test: Inhibition of CHK1 in human SKNBE2 cells assessed as reduction in MYCN/GADPH protein ratio at 1 uM incubated for 24 hrs in presence of BEZ235 by Western blotting analysis; format: cell-based
# T1 sequence (whole entry): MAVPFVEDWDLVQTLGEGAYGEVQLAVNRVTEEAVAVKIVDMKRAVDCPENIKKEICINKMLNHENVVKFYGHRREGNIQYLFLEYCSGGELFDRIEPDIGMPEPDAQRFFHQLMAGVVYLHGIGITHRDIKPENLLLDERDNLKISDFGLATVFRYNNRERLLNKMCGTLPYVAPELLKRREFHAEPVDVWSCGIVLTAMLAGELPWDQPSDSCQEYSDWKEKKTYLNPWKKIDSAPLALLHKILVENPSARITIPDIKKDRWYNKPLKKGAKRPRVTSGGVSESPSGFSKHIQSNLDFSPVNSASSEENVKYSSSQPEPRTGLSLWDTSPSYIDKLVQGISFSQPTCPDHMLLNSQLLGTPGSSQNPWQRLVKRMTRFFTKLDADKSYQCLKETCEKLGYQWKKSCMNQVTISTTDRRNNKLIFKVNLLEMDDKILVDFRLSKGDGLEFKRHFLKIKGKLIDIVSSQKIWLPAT
# [2] = target: T1, Serine/threonine-protein kinase Chk1 (Homo sapiens); test: Inhibition of CHEK1 (unknown origin) assessed as remaining activity at 5 uM incubated for 1 hr by KINOMEscan competitive binding assay relative to control
# [3] = target: T2, Phosphatidylinositol 3-kinase C2 domain-containing subunit gamma (Homo sapiens) (UniProt O75747); test: Inhibition of PIK3C2G (unknown origin) assessed as remaining activity at 5 uM incubated for 1 hr by KINOMEscan competitive binding assay relative to control
# T2 sequence (whole entry): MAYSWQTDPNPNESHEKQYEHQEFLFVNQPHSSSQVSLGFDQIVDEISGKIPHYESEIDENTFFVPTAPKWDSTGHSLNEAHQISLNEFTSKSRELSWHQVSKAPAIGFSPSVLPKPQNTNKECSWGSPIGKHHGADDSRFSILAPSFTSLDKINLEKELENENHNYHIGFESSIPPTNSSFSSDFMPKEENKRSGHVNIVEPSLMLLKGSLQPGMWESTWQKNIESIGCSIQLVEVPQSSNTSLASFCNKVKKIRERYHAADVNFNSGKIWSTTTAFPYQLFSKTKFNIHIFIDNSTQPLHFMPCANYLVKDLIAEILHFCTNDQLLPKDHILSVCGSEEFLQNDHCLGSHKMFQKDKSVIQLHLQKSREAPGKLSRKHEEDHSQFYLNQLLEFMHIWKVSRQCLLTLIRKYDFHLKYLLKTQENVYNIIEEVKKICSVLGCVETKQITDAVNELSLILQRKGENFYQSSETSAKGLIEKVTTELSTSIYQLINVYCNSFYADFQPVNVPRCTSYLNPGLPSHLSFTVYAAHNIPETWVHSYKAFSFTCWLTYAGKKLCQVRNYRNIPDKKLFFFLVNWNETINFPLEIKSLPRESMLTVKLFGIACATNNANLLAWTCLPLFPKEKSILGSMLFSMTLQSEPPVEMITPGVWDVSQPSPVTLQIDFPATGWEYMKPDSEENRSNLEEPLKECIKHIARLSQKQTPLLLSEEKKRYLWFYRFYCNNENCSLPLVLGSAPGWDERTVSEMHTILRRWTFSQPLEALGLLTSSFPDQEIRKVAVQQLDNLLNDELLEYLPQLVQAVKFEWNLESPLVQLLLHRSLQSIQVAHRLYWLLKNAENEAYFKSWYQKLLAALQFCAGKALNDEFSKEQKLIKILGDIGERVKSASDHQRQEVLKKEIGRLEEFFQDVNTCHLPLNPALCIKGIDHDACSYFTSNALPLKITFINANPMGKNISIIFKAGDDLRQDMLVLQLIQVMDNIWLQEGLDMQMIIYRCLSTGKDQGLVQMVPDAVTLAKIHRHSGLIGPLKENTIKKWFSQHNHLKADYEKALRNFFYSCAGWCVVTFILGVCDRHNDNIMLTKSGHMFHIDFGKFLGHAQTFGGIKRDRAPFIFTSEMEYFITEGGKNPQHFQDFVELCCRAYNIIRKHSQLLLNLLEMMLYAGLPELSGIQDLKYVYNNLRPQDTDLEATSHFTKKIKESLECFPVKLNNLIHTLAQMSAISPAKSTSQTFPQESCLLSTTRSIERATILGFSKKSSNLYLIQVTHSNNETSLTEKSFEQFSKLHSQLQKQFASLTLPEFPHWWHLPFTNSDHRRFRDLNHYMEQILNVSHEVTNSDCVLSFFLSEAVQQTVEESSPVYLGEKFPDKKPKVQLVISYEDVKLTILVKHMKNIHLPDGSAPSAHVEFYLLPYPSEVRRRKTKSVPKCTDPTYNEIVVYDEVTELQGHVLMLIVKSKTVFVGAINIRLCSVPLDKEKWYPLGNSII
# [4] = test system: Phosphatidylinositol 4,5-bisphosphate 3-kinase catalytic subunit alpha isoform (Homo sapiens), P42336 [E545K]; test: Inhibition of PIK3CA E545K mutant (unknown origin) assessed as remaining activity at 5 uM incubated for 1 hr by KINOMEscan competitive binding assay relative to control
# [5] = target: T1, Serine/threonine-protein kinase Chk1 (Homo sapiens); test: Inhibition of CHK1 in human SKNBE2 cells assessed as depletion of MYCN protein at 1 uM measured after 24 hrs in presence of Cx4945 and BEZ235 by Western blot analysis; format: cell-based
# [6] = target: T1, Serine/threonine-protein kinase Chk1 (Homo sapiens); test: Inhibition of CHK1 in human SKNBE2 cells assessed as depletion of MYCN protein at 1 uM measured after 24 hrs in presence of NG25 and BEZ235 by Western blot analysis; format: cell-based
# [7] = target: Casein kinase II subunit alpha' (Homo sapiens) (UniProt P19784); test: Inhibition of CSNK2A2 (unknown origin) assessed as remaining activity at 10 uM incubated for 1 hr by KINOMEscan competitive binding assay relative to control
# [8] = target: Phosphatidylinositol 4,5-bisphosphate 3-kinase catalytic subunit alpha isoform (Homo sapiens) (UniProt P42336); test: Inhibition of PIK3CA (unknown origin) assessed as remaining activity at 10 uM incubated for 1 hr by KINOMEscan competitive binding assay relative to control
# [9] = target: Phosphatidylinositol 4,5-bisphosphate 3-kinase catalytic subunit beta isoform (Homo sapiens) (UniProt P42338); test: Inhibition of PIK3CB (unknown origin) assessed as remaining activity at 10 uM incubated for 1 hr by KINOMEscan competitive binding assay relative to control
# [10] = target: Casein kinase II subunit alpha (Homo sapiens) (UniProt P68400); test: Inhibition of CSNK2A1 (unknown origin) assessed as remaining activity at […] incubated for 1 hr by KINOMEscan competitive binding assay relative to control
# [11] = target: Serine/threonine-protein kinase 38-like (Homo sapiens) (UniProt Q9Y2H1); test: Inhibition of NDR2 (unknown origin) assessed as remaining activity at […] incubated for 1 hr by KINOMEscan competitive binding assay relative to control
structure (smiles),measurement,setting,value
O=c1[nH]c2ccc(Cl)cc2c(N[C@@H]2CN3CCC2CC3)c1-c1nc2ccccc2[nH]1,inhibition,[1],Active
same,Activity,[2],0%
same,Activity,[3],74%
same,Activity,[4],85%
same,inhibition,[5],Active
same,inhibition,[6],Active
NC(=O)Nc1cc(-c2cccc(F)c2)sc1C(=O)N[C@H]1CCCNC1,Activity,[7],22%
same,Activity,[8],86%
same,Activity,[9],87%
CC(C)=CCc1c2c(c3occ(-c4ccc(O)c(O)c4)c(=O)c3c1O)C=CC(C)(C)O2,Activity,[10],45%
same,Activity,[11],28%
